Measurements: patent publication US10752591B2, “18-20 member bi-polycyclic compounds” (Haro Pharmaceutical Inc., priority 2014, dated 2020)

Assays:
purified rat liver HDAC = purified rat liver HDAC inhibition; assay type: biochemical; conditions: relative to compound 17
Experimental: (§1) The effect of compounds on the enzymatic activity of purified recombinant human HDAC-1, -2, -3, -6, and -8 activity and of purified rat liver HDAC was examined by measuring the deacetylation of synthetic peptides in various preparations of HDACs. HDAC assays were performed using a two-step enzymatic reaction where enzyme activity is correlated to the release of […] (AMC). AMC fluorescence is measured in a fluorescent plate reading using λex380 nm and λen440 nm.
(§2) The reaction was allowed to proceed for 40 min at 37° C., after which developer solution (0.5% trypsin, 10 μM trichostatin A (TSA)) was added to obtain a final concentration of 0.1% trypsin, 2 μM TSA. After 30 minutes at room temperature, the amount of free fluorogenic AMC was measured as described above.

[1] = system: IMR-32 neuroblastoma cells; test: cytotoxicity, cell survival (CellTiterGlo) in IMR-32; assay type: cell-based; conditions: relative to compounds 17 and 8
Experimental: (§3) The cytotoxicity of compounds was examined and directly compared to compound 17, by measuring cell survival of clonal tumor cell lines IMR-32, BE2C (neuroblastoma), as well as MDA-MB-231, BT20, HCC-38 (Basal) and MCF7 (luminal) breast cancer cells (ATCC). Cells were cultured in phenol red-free RPMI medium supplemented with 10% FBS and 1 mM Ala-Glu. Typically, 10,000-20,000 cells/well were plated in a 96 well plate (Costar 3197). Cells were exposed to compounds or vehicle (1% DMSO final). Cells were maintained in the presence of compound for four or five days. Media and compounds were renewed every 48 hours. Cell survival was measured using the luminescence CellTiterGlo kit (Promega Corporation) and expressed as relative light unit as fold over DMSO.

[2] = biological target: T1, purified recombinant human HDAC-8 (Homo sapiens, UniProt Q9BY41); test: HDAC-8 enzymatic inhibition (Boc-Lys(Tfa)-AMC / HDAC-Glo I/II); assay type: biochemical; conditions: relative to compound 17
T1 construct: purchased Cayman Chem 10009465 (AMC assay (so in the source)); 19380 (HDAC-Glo assay)
T1 sequence (Q9BY41 1-377): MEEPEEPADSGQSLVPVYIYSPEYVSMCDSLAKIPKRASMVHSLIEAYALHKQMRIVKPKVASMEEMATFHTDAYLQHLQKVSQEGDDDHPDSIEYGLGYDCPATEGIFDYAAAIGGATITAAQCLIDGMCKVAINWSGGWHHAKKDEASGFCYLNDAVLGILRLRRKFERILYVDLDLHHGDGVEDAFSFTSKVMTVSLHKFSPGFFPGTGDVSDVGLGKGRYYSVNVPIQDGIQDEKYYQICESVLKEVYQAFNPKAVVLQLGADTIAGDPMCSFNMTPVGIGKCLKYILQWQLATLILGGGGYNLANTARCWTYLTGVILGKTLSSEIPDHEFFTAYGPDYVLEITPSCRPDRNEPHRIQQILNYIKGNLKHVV
Experimental: as §1
HDAC-8, HDAC-9, HDAC-10 and HDAC-11 were assayed using HDAC-Glo™ I/II Kit (Promega Corporation G6421) in a total volume of 110 μl following the manufacturer's instructions.
as §2

[3] = biological target: purified recombinant human HDAC-1 (Homo sapiens, UniProt Q13547); test: HDAC-1 enzymatic inhibition (AMC fluorogenic peptide deacetylation); assay type: biochemical; conditions: up to
Experimental: as §1, §2

RXR = test: RXR-mediated transcription, RXRE luciferase reporter in MCF7 cells; assay type: cell-based
Source text: (§4) The effect of various compounds of the invention on RAR-mediated transcription in MCF7 breast cancer cells was examined by measuring their effect on the transcription of a luciferase reporter gene under the control of a TK promoter placed downstream of a RAR response element. In addition, the effect of the compounds on the closely related RXR-mediated transcription was examined by measuring their effect on the transcription of a luciferase reporter gene under the control of a TK promoter placed downstream of a RXR response element.
(§5) Typically, 10,000 cells were plated in 96 wells plates in phenol red-free RPMI medium supplemented with 10% charcoal-stripped Fetal Bovine Serum. After 24 hours, cells were transfected with 0.1 μg of luciferase reporter plasmid and 0.01 μg of a reporter plasmid expressing renilla luciferase (RLuc) gene under the control of a SV40 promoter, using Fugene 6 transfection reagent (0.5 μl/well Promega Corporation). Cells were treated in triplicate with compounds or vehicle (DMSO) for 24 hours. Luciferase and renilla luciferase activities were measured using Dual-Glo reagent (Promega Corporation). Luciferase activity was normalized in each well for renilla activity.

RAR = test: RAR-mediated transcription, RARE-tk luciferase reporter in MCF7 cells; assay type: cell-based
Source text: as §4, §5

mouse pharmacokinetics = assay type: in vivo; conditions: mice
Experimental: Mouse pharmacokinetics studies were conducted in female athymic nude or male C57/B6 mice (n=3). Due to its very poor aqueous solubility, compound 17 was formulated in 66% PEG-400/33% H2O-1% Tween-80. In contrast compound 13 was formulated in 66% PEG-400/33% H2O. Compounds were administered PO (30 mg/kg) or IV (5 mg/kg), and plasma concentrations were measured by UV/HPLC.

C2Cl2 cells [4] = test: myoblast fusion in long term C2Cl2 cultures (MHC immunocytochemistry); assay type: cell-based; conditions: for fusion of single cells into multinucleated C2Cl2 myotubes: long-term culture, suboptimal RPMI media with 2% horse serum
Experimental: The effect of compounds on myoblast fusion was examined in C2Cl2 cells maintained in RPMI media supplemented with 2% horse serum. C2Cl2 myoblastic cells where purchased from the American Type Culture Collection (ATCC) and maintained undifferentiated in RPMI media (Corning) supplemented with 2 mM L-Alanine-L-Glutamine (ATCC) and 1 mM pyruvate (Corning). Undifferentiated cells where maintained below 70% confluence. For long term cultures and compound treatment, cells where plated at high density CellBIND Culture Dishes (corning 3294, 3296, 3337) and in RPMI supplemented with 2% Horse Serum (Gibco) and 2 mM L-Alanine-L-Glutamine (ATCC) and 1 mM pyruvate (Corning). Compounds were dissolved in DMSO at 1000 time the final concentration and diluted 1-in-1000 in the media covering the cells. Media and compounds were changed daily. For immunocytochemistry, cells were fixed in 2% PFA in HBSS for 10 minutes and left in HBSS at 4° under humidified atmosphere and processed for immunocytochemistry. For myosin heavy chain detection (MHC), cells were first incubated in 100 ul-1 ml 0.15 M Glycine in DPBS for 10 minutes, rinse with DPBS. 100 ul-1 ml 0.5% Triton-X in DPBS was added for 10 minutes, rinsed with DPBS, and followed by incubation with 100 ul blocking agent (10% goat serum in DPBS) for 30 min at room temperature. MF20 primary antibody in 10% goat serum in DPBS was added at 1/60 dilution for 30 min at room temperature and rinsed three times with 100 ul DPBS. IgG2b goat anti mouse secondary antibody (Jackson Immuno-Research) was added at 1:1000 in 10% goat serum in DPBS for exactly 30 min at room temperature then rinsed 3 times with 100 ul DPBS. A final rinse in H2O was performed and cells were covered with two drops of Elvanol and cover gently with cover slip and allowed to dry in the dark for 24-48 hours.

C2Cl2 cells [5] = test: Q-RT PCR of myofiber-degradation associated genes in long term C2Cl2 cultures; assay type: cell-based; conditions: day 10, normalized for RPLP0
Experimental: Quantitative RT-PCR was performed on RNA prepared from cell treated as in Example 9. At day 10 of the experiment, cells were rinsed in HBSS (without calcium or magnesium) and RNA was prepared using FastLane Cell cDNA Kit (Qiagen). Quantitative PCR was performed using Eppendorf and SYBR amplification mix (Sigma-Aldrich) using the gene specific primer combination given in Table 3. Data were normalized for ribosomal housekeeping gene RPLP0

C2Cl2 myoblasts = test: myotube fusion and degeneration in differentiated C2Cl2 cells left in exhausted media; assay type: cell-based; conditions: 200 nM pre-treatment
Experimental: C2Cl2 myoblasts were seeded at 100,000 in 30 mm plate in growth medium (Phenol red-free RMPI containing 10% FBS, Sodium pyruvate and Ala-Glu), and “pre-treated” with DMSO or 200 nM of compounds 13 or 17. At confluence cells were shifted to differentiation media (high glucose DMEM, +0.2% HS+1× Insulin/Transferrin/Selenium (Life Tech 41400-045)+Glutamine, without Pyruvate). Fully differentiated C2Cl2-derived myotubes were left in culture without media renewal for 8 days followed by media renewal and microscopic examination.

aqueous solubility = assay type: physicochemical
[6] = system: MDA-MB-231 breast cancer cells; test: cytotoxicity, cell survival (CellTiterGlo) in MDA-MB-231; assay type: cell-based; conditions: MDA-MB-231 cells
Experimental: as §3

[7] = system: BE-2C neuroblastoma cells; test: cytotoxicity, cell survival (CellTiterGlo) in BE-2C; assay type: cell-based; conditions: BE-2C cells
Experimental: as §3

[8] = system: Lys40 acetylated alpha tubulin; test: intracellular acetylation of alpha-tubulin in BE-2C cells; assay type: cell-based; conditions: 16 hours
Experimental: The effect of certain compounds on intracellular acetylation of target proteins was tested in high risk neuroblastoma cells, BE-2C and IMR-32 cells.
BE-2C cells were grown to confluence in phenol-red-free RPMI media supplemented with 10% FBS and 2.5 mM Ala-Glu. […] Total and Lys 40 acetylated alpha tubulin were detected using specific antibodies.
Beta actin, total and Lys382 acetylated p53, and Lys40 acetylated alpha, and total tubulin were detected using antibodies (Cell Signaling #8557, #2524 #2525, #12152 and #2144 respectively) using manufacturer recommended conditions.

[9] = mouse, plasma, PO (30 mg/kg) or IV (5 mg/kg), route per parameter not stated

purified recombinant human HDAC-1, sequence (Q13547 whole entry): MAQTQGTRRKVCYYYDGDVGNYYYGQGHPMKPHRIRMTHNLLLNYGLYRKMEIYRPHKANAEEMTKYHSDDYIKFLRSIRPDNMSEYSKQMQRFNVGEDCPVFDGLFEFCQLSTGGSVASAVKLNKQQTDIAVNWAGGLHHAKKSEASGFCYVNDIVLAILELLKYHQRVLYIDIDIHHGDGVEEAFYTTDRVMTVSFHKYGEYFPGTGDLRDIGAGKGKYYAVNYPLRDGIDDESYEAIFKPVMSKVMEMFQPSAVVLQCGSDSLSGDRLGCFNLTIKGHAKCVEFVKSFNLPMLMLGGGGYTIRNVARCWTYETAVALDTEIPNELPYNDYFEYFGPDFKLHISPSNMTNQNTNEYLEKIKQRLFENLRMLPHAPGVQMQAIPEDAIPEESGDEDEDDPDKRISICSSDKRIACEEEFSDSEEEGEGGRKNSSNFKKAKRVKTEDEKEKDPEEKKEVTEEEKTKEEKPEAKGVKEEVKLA

For `CC1(C)CCC(C)(C)c2cc(-c3c[nH]c4ccc(C(=O)NO)cc34)ccc21` [Compound 5], the “times more potent than compound 17 in inhibition of purified rat hepatic HDAC” value (purified rat liver HDAC) was “six”, the “fold more potent than compounds 17 and 8 in killing IMR-32 cells” value [1] was “ten” and the “times/fold more potent than compound 17 in HDAC-8 inhibition” value [2] was “over 200”. For the same molecule, the “maximal inhibition of HDAC-1 activity” value [3] was roughly 50% and the “transcriptional activation of RXR / RXRE-promoter” value (RXR) was “none”.

For `CC1(C)CCC(C)(C)c2cc(-c3ccc4nc(C(=O)NO)ccc4c3)ccc21` [Compound 8], the “times more potent than compound 17 in inhibition of purified rat hepatic HDAC” value (purified rat liver HDAC) was “at least three”, the “RARE-dependent luciferase expression” value (RAR) was “activated” and the “transcriptional activation of RXR / RXRE-promoter” value (RXR) was “none”.

Molecule `CC1(C)CCC(C)(C)c2cc(-c3ccc4cc(C(=O)NO)ccc4c3)ccc21` [Compound 17] has an F (mouse pharmacokinetics; PO (30 mg/kg) and IV (5 mg/kg)) of 19.7%, an AUC(0-inf) (mouse pharmacokinetics; [9]) of 28.7 µM·h and a Cmax (mouse pharmacokinetics; [9]) of 2080 nM. The clearance (mouse pharmacokinetics; mouse, plasma, PO (30 mg/kg) or IV (5 mg/kg), route per parameter not stated, read-out: CLp) was 10.2 mL/min/kg, the MRT (mouse pharmacokinetics; mouse, plasma, PO (30 mg/kg) or IV (5 mg/kg), route per parameter not stated, read-out: MRT) was 7.1 h and the Tmax (mouse pharmacokinetics; mouse, plasma, PO (30 mg/kg) or IV (5 mg/kg), route per parameter not stated, read-out: Tmax) was 4.3 h. The Vd (mouse pharmacokinetics; mouse, plasma, PO (30 mg/kg) or IV (5 mg/kg), route per parameter not stated, read-out: Vd,ss) was 4.6 L/kg, the “myotubes' length and diameter versus DMSO” value (C2Cl2 cells [4]; 300 nM) was “longer and larger” and the “average nuclei per cell of polynucleated myotubes” value (C2Cl2 cells [4]; 300 nM, 10 days) was 5-10 nuclei per cell. The “fusion of single cells into multinucleated C2Cl2 myotubes” value (C2Cl2 cells [4]) was “enhances the fusion”, the “expression of Atrogin” value (C2Cl2 cells [5]) was “downregulates” and the expression of myogenin (C2Cl2 cells [5]) was “downregulates”. The “cellular fusion after 72 hours differentiation versus DMSO” value (C2Cl2 myoblasts) was “extensive cellular fusion”, the “myotube structural atrophy in exhausted media for over 8 days” value (C2Cl2 myoblasts) was “very little structural alteration” and the aqueous solubility (aqueous solubility) was “very poor”. The “transcriptional activation of RXR / RXRE-promoter” value (RXR) was “none”.

In the case of `CC1(C)CCC(C)(C)c2cc(-c3c[nH]c4cc(C(=O)NO)ccc34)ccc21` [Compound 18], the “cytotoxic potency compared with compound 17, SAHA, Ricolinistat” value [6] was “more potent than compound 17, SAHA or Ricolinistat”, the “cytotoxic potency compared with compound 17, SAHA, Ricolinistat” value [7] was “more potent than compound 17, SAHA or Ricolinistat” and the “maximal inhibition of HDAC-1 activity” value [3] was roughly 50%. The “RARE-dependent luciferase expression” value (RAR) was “activated” and the “transcriptional activation of RXR / RXRE-promoter” value (RXR) was “none”.

With `CC1(C)CCC(C)(C)c2cc(-c3ccc4cc(C(=O)NO)[nH]c4c3)ccc21` [Compound 19] the “RARE-dependent luciferase expression” value (RAR) was “activated” and the “transcriptional activation of RXR / RXRE-promoter” value (RXR) was “none”.

With `CC1(C)CCC(C)(C)c2cc(-c3ccc4cc(C(=O)NO)cnc4c3)ccc21` [Compound 20, N-hydroxy-7-(5,5,8,8-tetramethyl-5,6,7,8-tetrahydronaphthalen-2-yl)quinoline-3-carboxamide] the “RARE-dependent luciferase expression” value (RAR) was “activated” and the “transcriptional activation of RXR / RXRE-promoter” value (RXR) was “none”.

For `CC1(C)CCC(C)(C)c2cc(-c3ccc4ccc(C(=O)NO)cc4c3)ccc21` [Compound 21, N-hydroxy-5′,5′,8′,8′,-tetramethyl-5′,6′,7′,8′-tetrahydro-[2,2′-binaphthalene]-7-carboxamide], the “transcriptional activation of RXR / RXRE-promoter” value (RXR) was “none”.

For `C/C(=C\c1ccc(C(=O)NO)cc1)c1ccc2c(c1)C(C)(C)CCC2(C)C` [Compound B, (E)-N-hydroxy-4-(2-(5,5,8,8-tetramethyl-5,6,7,8-tetrahydronaphthalen-2-yl)prop-1-en-1-yl)benzamide], the “fusion of single cells into multinucleated C2Cl2 myotubes” value (C2Cl2 cells [4]) was “enhances the fusion”.

In the case of `O=C(CCCCCCNC(=O)c1cnc(N(c2ccccc2)c2ccccc2)nc1)NO` [Ricolinostat], the “Lysin (K) 40 alpha-Tubulin acetylation” value ([8]; 2 uM) was “pronounced Lysin (K) 40 alpha-Tubulin acetylation”.

In the case of `O=C(CCCCCCC(=O)Nc1ccccc1)NO` [SAHA, suberoylanilide hydroxamic acid], the “Lysin (K) 40 alpha-Tubulin acetylation” value ([8]; 2 uM) was “pronounced Lysin (K) 40 alpha-Tubulin acetylation”.

In the case of `CC(/C=C/C(=O)NO)=C\[C@@H](C)C(=O)c1ccc(N(C)C)cc1` [TSA, trichostatin A], the “Lysin (K) 40 alpha-Tubulin acetylation” value ([8]; 1 uM) was “pronounced Lysin (K) 40 alpha-Tubulin acetylation”.
